Measurements reported in PMC5297880 (Clinical Pharmacology in Drug Development, 2016).
Like-named read-outs stand apart in the source and are kept apart here. Values belong to the compound of their own block, whether it stands above or below them.

Legend:
UGT1A1 = details: read-out: IC50 for 17β-estradiol 3-glucuronidation [UGT1A1]; human liver microsomes; cited from earlier work
OCT2 = details: [14C]metformin substrate, ref data on file, cited from earlier work
CYP3A5 = details: CYP3A5-expressing human liver microsomes; cited from earlier work
CYP2C8 [1] = details: CYP2C8-expressing human liver microsomes; cited from earlier work
P-gp = details: read-out: IC50 P-gp inhibition; [3H]digoxin substrate; ref data on file; cited from earlier work
CYP3A4 [2] = details: cultured human hepatocytes; cited from earlier work
MATE1 = details: read-out: IC50 MATE1 inhibition; [14C]metformin substrate; ref data on file; cited from earlier work
[3] = Safety: treatment-emergent adverse events in healthy subjects; assay type: in vivo, human
CYP2C8 [4] = details: human liver microsomes; paclitaxel hydroxylation; P < .05; ref data on file; cited from earlier work
CYP2B6 [5] = details: human liver microsomes; S-mephenytoin demethylation; P < .01; ref data on file; cited from earlier work
CYP2B6 [6] = details: cultured human hepatocytes; cited from earlier work
CYP3A7 = details: CYP3A7-expressing human liver microsomes; cited from earlier work
UGT1A9 = details: read-out: IC50 for propofol glucuronidation [UGT1A9]; human liver microsomes; cited from earlier work
UGT2B7 = details: read-out: IC50 for morphine 3-glucuronidation [UGT2B7]; human liver microsomes; cited from earlier work
CYP3A4 [7] = details: CYP3A4-expressing human liver microsomes; cited from earlier work
[8] = assay type: in vivo, human; details: for AUCτ geometric least-squares mean ratio (90%CI) / Cmax geometric least-squares mean ratio (90%CI): lopinavir/ritonavir plus isavuconazole to isavuconazole alone; for AUC: AUCτ, day 13 (24 hours), mean (SD)
CYP2B6 [9] = details: CYP2B6-expressing human liver microsomes; cited from earlier work
[10] = assay type: in vivo, human; details: for decrease in mean AUCτ in presence vs absence of isavuconazole / decrease in mean Cmax in presence vs absence of isavuconazole: Part 2, isavuconazole 200 mg; for AUC / Cmax: both, human, plasma, oral; for AUC: AUCτ, day 13 (12 hours), mean (SD); for Cmax: day 13, mean (SD)
[11] = Part 2, lopinavir/ritonavir plus isavuconazole to lopinavir/ritonavir alone
[12] = Part 2, lopinavir/ritonavir 400/100 mg + isavuconazole 200 mg, n = 16
[13] = Part 2, lopinavir/ritonavir 400/100 mg alone, n = 18

Compound: C[C@@H](c1nc(-c2ccc(C#N)cc2)cs1)[C@](O)(Cn1cncn1)c1cc(F)ccc1F [Isavuconazole, isavuconazole]
IC50 (UGT1A1): 9 µM
IC50 (OCT2; read-out: IC50 OCT2 inhibition): 1.97 µM
Ki (OCT2; read-out: Ki OCT2 inhibition): 0.69 µM
% remaining (CYP3A5): 68.4 % remaining
% remaining (CYP2C8 [1]): > 98 % remaining
IC50 (P-gp): 25.7 µM
increase of CYP3A4 activity (CYP3A4 [2]): 3.4 fold
increase of CYP3A4 mRNA (CYP3A4 [2]): 6.4 fold
IC50 (MATE1): 6.31 µM
subjects who experienced TEAEs ([3]; Part 1 (isavuconazole 100 mg), all mild): 2 (33.3%) n (%)
TEAEs overall, subjects ([3]; Part 2): 11 (61.1%) n (%)
subjects with TEAEs in system organ class gastrointestinal disorders ([3]; Part 2, text): 16.7%
correlation (r) of isavuconazole metabolism with CYP2C8 activity (CYP2C8 [4]): 0.57
correlation (r) of isavuconazole metabolism with CYP2B6 activity (CYP2B6 [5]): 0.65
increase of CYP2B6 activity (CYP2B6 [6]): 13.4 fold
increase of CYP2B6 mRNA (CYP2B6 [6]): 11.4 fold
% remaining (CYP3A7): > 98 % remaining
IC50 (UGT1A9): 19 µM
IC50 (UGT2B7): 44 µM
% remaining (CYP3A4 [7]): 33.8 % remaining
AUCτ geometric least-squares mean ratio (90%CI) ([8]; Part 1 (isavuconazole 100 mg)): 213 (174, 262) %
Cmax geometric least-squares mean ratio (90%CI) ([8]; Part 1 (isavuconazole 100 mg)): 196 (155, 248) %
increase in mean AUCτ in presence vs absence of lopinavir/ritonavir ([8]; Part 1, isavuconazole 100 mg): 113%
increase in mean Cmax in presence vs absence of lopinavir/ritonavir ([8]; Part 1, isavuconazole 100 mg): 96%
AUCτ geometric least-squares mean ratio (90%CI) ([8]; Part 2 (isavuconazole 200 mg)): 196 (164, 235) %
Cmax geometric least-squares mean ratio (90%CI) ([8]; Part 2 (isavuconazole 200 mg)): 174 (146, 208) %
increase in mean AUCτ in presence vs absence of lopinavir/ritonavir ([8]; Part 2, isavuconazole 200 mg): 96%
increase in mean Cmax in presence vs absence of lopinavir/ritonavir ([8]; Part 2, isavuconazole 200 mg): 74%
Tmax ([8]; Part 2, isavuconazole 200 mg + lopinavir/ritonavir, day 13, median (range)): 3.0 (1.0‐4.0) hours
Tmax ([8]; both, human, plasma, oral, 100 mg): 3 h
Tmax ([8]; both, human, plasma, oral, 200 mg): 3 h
AUC ([8]; both, human, plasma, oral, Part 1, isavuconazole 100 mg + lopinavir/ritonavir 400/100 mg BID, n = 6): 116000 ng·h/mL
AUC ([8]; both, human, plasma, oral, Part 2, isavuconazole 200 mg + lopinavir/ritonavir 400/100 mg BID, n = 16): 222000 ng·h/mL
% remaining (CYP2B6 [9]): > 98 % remaining

decrease in mean AUCτ in presence vs absence of isavuconazole [10]: 27%
decrease in mean Cmax in presence vs absence of isavuconazole [10]: 23%
AUCτ geometric least-squares mean ratio (90%CI) [10, 11]: 73 (56, 96) %
Cmax geometric least-squares mean ratio (90%CI) [10, 11]: 77 (62, 95) %
AUC [10, 12]: 73300 ng·h/mL
AUC [10, 13]: 91000 ng·h/mL
Compound: Cc1cccc(C)c1OCC(=O)N[C@@H](Cc1ccccc1)[C@@H](O)C[C@H](Cc1ccccc1)NC(=O)[C@H](C(C)C)N1CCCNC1=O [Lopinavir, lopinavir]

decrease in mean AUCτ in presence vs absence of isavuconazole [10]: 31%
decrease in mean Cmax in presence vs absence of isavuconazole [10]: 33%
AUC [10, 12]: 4000 ng·h/mL
AUC [10, 13]: 5500 ng·h/mL
Cmax ([10]; Part 2, lopinavir/ritonavir + isavuconazole): 800 ng/mL
Cmax ([10]; Part 2, lopinavir/ritonavir alone): 1200 ng/mL
Compound: CC(C)c1nc(CN(C)C(=O)N[C@H](C(=O)N[C@@H](Cc2ccccc2)C[C@H](O)[C@H](Cc2ccccc2)NC(=O)OCc2cncs2)C(C)C)cs1 [Ritonavir, ritonavir]
